Where two headings read alike, the source gives them in different places.
Key:
Assay type in all cases: cell-based
[1] = test system: Botryotinia fuckeliana (Botrytis cinerea); assay: Botryotinia fuckeliana (Botrytis cinerea) / liquid culture (Gray mould); settings: 72 h, 200 ppm, liquid culture, 24° C., inhibition of growth determined photometrically 3-4 days after application, vs untreated control, read-out: disease control
[2] = test system: Gaeumannomyces graminis; assay: Gaeumannomyces graminis / liquid culture (Take-all of cereals); settings: 96 h, read-out: disease control
[3] = test system: Glomerella lagenarium (Colletotrichum lagenarium); assay: Glomerella lagenarium (Colletotrichum lagenarium) / liquid culture (Anthracnose); settings: Colletotrichum orbiculare; 200 ppm; liquid culture, 24° C., inhibition of growth measured photometrically 3-4 days after application; vs untreated control; read-out: disease control
[4] = test system: Monographella nivalis (Microdochium nivale); assay: Monographella nivalis (Microdochium nivale) / liquid culture (Foot rot cereals); settings: 96 h, 200 ppm, liquid culture, 24° C., inhibition of growth determined photometrically 4-5 days after application, vs untreated control, read-out: disease control
[5] = test system: Fusarium culmorum; assay: microbe, parasite or virus in culture; settings: 72 h, read-out: disease control
[6] = test system: Mycosphaerella graminicola (Septoria tritici); assay: Mycosphaerella graminicola (Septoria tritici) / liquid culture (Septoria blotch); settings: Zymoseptoria tritici, 96 h, read-out: disease control
[7] = liquid culture, 24° C., inhibition of growth determined photometrically 4-5 days after application, vs untreated control

Measured: inhibition of growth at 200 ppm

CC1(C)N=C(c2cnn3cccc3c2)c2cccc(F)c2C1(C)C [E 1]
≥ 80%: [1] | [2]; [7] | [3] | [4]

CC1(C)N=C(c2cnn3c(F)ccc3c2)c2cccc(F)c2C1(C)C [E 2]
≥ 80%: [1] | [5] | [2]; [7] | [3] | [4]

CC1(C)Cc2c(F)cccc2C(c2cnn3cccc3c2)=N1 [E 3]
≥ 80%: [1] | [5] | [2]; [7] | [3] | [4] | [6]; [7]

CC1(C)Cc2c(Br)cccc2C(c2cnn3cccc3c2)=N1 [E 5]
≥ 80%: [1] | [5] | [3] | [4] | [6]; [7]

CC1(C)Cc2c(F)cccc2C(c2cnn3c(F)ccc3c2)=N1 [E 7, 5-fluoro-1-(7-fluoro-pyrrolo[1,2-b]pyridazin-3-yl)-3,3-dimethyl-3,4-dihydro-isoquinoline]
≥ 80%: [1] | [5] | [3] | [4]

CC1(C)Cc2c(Br)cccc2C(c2cnn3c(F)ccc3c2)=N1 [E 9]
≥ 80%: [1] | [5] | [3] | [4]

CC1(C)Cc2c(F)cccc2C(c2cnn3c(F)cc(Br)c3c2)=N1 [E 15]
≥ 80%: [1] | [2]; [7] | [3] | [4] | [6]; [7]

CC1(C)Cc2c(F)cccc2C(c2cnn3c(Br)ccc3c2)=N1 [E 17]
≥ 80%: [1] | [2]; [7] | [3] | [4]

Cc1cc(F)n2ncc(C3=NC(C)(C)Cc4c(F)cccc43)cc12 [E 18]
≥ 80%: [1] | [2]; [7] | [3] | [4] | [6]; [7]

CC1(C)Cc2ccccc2C(c2cnn3c(F)ccc3c2)N1 (centres unmarked) [E 21]
≥ 80%: [1] | [2]; [7] | [3]

CC1(C)Cc2c(C#N)cccc2C(c2cnn3c(F)ccc3c2)=N1 [E 22]
≥ 80%: [1] | [5] | [3] | [4]

CC1(C)N=C(c2cnn3c(F)cc(I)c3c2)c2cccc(F)c2C1(C)C [E 24]
≥ 80%: [1] | [5] | [3] | [4] | [6]; [7]

Cc1ccc2cc(C3=NC(C)(C)Cc4c(F)cccc43)cnn12 [E 26]
≥ 80%: [1] | [5] | [3] | [4]

C#Cc1cccc2c1CC(C)(C)N=C2c1cnn2c(F)ccc2c1 [E 27]
≥ 80%: [1] | [5] | [2]; [7] | [3] | [4] | [6]; [7]

CC1(C)Cc2c(I)cccc2C(c2cnn3cccc3c2)=N1 [E 29]
≥ 80%: [1] | [5] | [3] | [4] | [6]; [7]

CC1(C)Cc2c(Oc3ccccn3)cccc2C(c2cnn3cccc3c2)=N1 [E 31]
≥ 80%: [1] | [2]; [7]

CC1(C)Cc2c(cccc2C(F)F)C(c2cnn3cccc3c2)=N1 [E 32]
≥ 80%: [1] | [5] | [3] | [4]

CC1(C)N=C(c2cnn3c(I)cc(I)c3c2)c2cccc(F)c2C1(C)C [E 38]
≥ 80%: [1] | [4] | [6]; [7]

CC1(C)N=C(c2cnn3c(Br)ccc3c2)c2cccc(F)c2C1(C)C [E 42]
≥ 80%: [1] | [5] | [2]; [7] | [3] | [4]

CC1(C)N=C(c2cnn3c(C#N)ccc3c2)c2cccc(F)c2C1(C)C [E 52]
≥ 80%: [1] | [5] | [3] | [4]

Cc1ccc2cc(C3=NC(C)(C)C(C)(C)c4c(F)cccc43)cnn12 [E 53]
≥ 80%: [1] | [5] | [3] | [4]

C#CCOc1cccc2c1CC(C)(C)N=C2c1cnn2cccc2c1 [E 54]
≥ 80%: [1] | [2]; [7]

CC1(C)Cc2c(Oc3ccccc3)cccc2C(c2cnn3cccc3c2)=N1 [E 60]
≥ 80%: [1] | [5] | [3] | [4] | [6]; [7]

CC1(C)N=C(c2cnn3cccc3c2)c2ccccc2C1(F)F [E 71]
≥ 80%: [1] | [5] | [3] | [4]

CC1(C)N=C(c2cnn3cccc3c2)c2ccc(F)cc2C1(C)C [E 72]
≥ 80%: [1] | [5] | [3] | [4]

CC1(C)N=C(c2cnn3cccc3c2)c2ccc(F)c(F)c2C1(C)C [E 73]
≥ 80%: [1] | [5] | [3] | [4]

CC1(C)N=C(c2cnn3cc(F)cc3c2)c2cccc(F)c2C1(C)C [E 74]
≥ 80%: [1] | [5] | [3] | [4]

CC1(C)N=C(c2cnn3c(F)c(F)cc3c2)c2cccc(F)c2C1(C)C [E 75]
≥ 80%: [1] | [5] | [2]; [7] | [3]

CC1(C)N=C(c2cnn3c(Cl)ccc3c2)c2cccc(F)c2C1(C)C [E 76]
≥ 80%: [5] | [2] | [6]

Cc1nn2cccc2cc1C1=NC(C)(C)C(C)(C)c2c1ccc(F)c2F [E 80]
≥ 80%: [1] | [5] | [3] | [4]

Cc1nn2c(Br)ccc2cc1C1=NC(C)(C)C(C)(C)c2c(F)cccc21 [E 84]
≥ 80%: [1] | [5] | [2]; [7] | [3] | [4]

Cc1cnc2cc(C3=NC(C)(C)C(F)(F)c4c(F)cccc43)cnn12 [E 90]
≥ 80%: [1] | [5] | [3] | [4]

Source: patent publication US9586969B2, “Microbiocidal heterobicyclic derivatives” (Syngenta Participations AG, priority 2014, dated 2017)
